According to patent US20240300927A1, “AMIDES AS CBL-B INHIBITORS” (Genentech, Inc., priority 2021, published 2024):

Assays:
Cbl-b = Cbl-b (Homo sapiens (Human), UniProt Q13191); test: Cbl-b LCK Ub TR-FRET assay (Cbl-b Lck HTRF); type: biochemical; conditions: for (fold-selectivity): Cbl-b and C-Cbl selectivity, Lck HTRF; for IC50: read-out: Cbl-b Lck HTRF IC50
Protocol: (§1) Compounds were 3-fold serially diluted in DMSO in a 384-well polypropylene plate (#P-05525-BC; Labcyte) to generate a source plate with 10 concentrations of each compound, top concentration=2 mM. 80 nL of DMSO or compounds were transferred to each well of a black 384-well ProxiPlate (#6008260; PerkinElmer) using a Labcyte Echo. 1× assay buffer (50 mM HEPES pH7.0, 100 mM NaCl, 0.01% BSA, 0.01% Triton-X100, 1 mM DTT), 2× enzyme solution (16 nM Biotin-Cbl-b or 12 nM Biotin-c-Cbl in 1× assay buffer), 2× kinase mixture (120 nM His-LCK, 1 mM ATP, 10 mM MgCl2 in assay buffer) and 2.33× detection mixture (4.66× solution 1: 163 nM Anti-HA-D2 antibody (#610HADAB; PerkinElmer), 27.96 nM Streptavidin-EU (#AD0062; PerkinElmer), 1.398 mM EDTA in 1× assay buffer+4.66× solution 2: 2.796 μM UBE2D2/Methylated-HA-Ubiquitin thioester adduct (BostonBiochem) in 1× assay buffer) were prepared. 4 μL of 2× enzyme solution was added to each well containing compound, briefly centrifuged to mix, and incubated for 60 min at room temperature. 4 μL of 2× kinase mixture was added, briefly centrifuged to mix, and incubated for 90 min. at room temperature. 6 μL of detection mixture was added to all wells and briefly centrifuged before incubating for 20 min at room temperature. Plates were read for TR-FRET using an Envision at excitation 340 nm, emission at 615 and 665 nm, 4 flashes per well. IC50 was generated using no LCK as the low control and DMSO as the high control.
(§2) Cbl-b Lck HTRF data in Table 3 is measured according to Example 25 herein; C-cbl Lck HTRF data is measured according to Example 25 herein.
(§3) SPR and the LCK biochemical assay are orthogonal assays: SPR is a protein binding assay while the LCK assay is an enzyme activity assay. SPR measures compound binding affinity to CBL-B/C-CBL, whereas LCK assay measures compound inhibition of CBL-B/C-CBL ubiquitin transfer activity.

c-Cbl = c-Cbl (Homo sapiens (Human), UniProt P22681); test: C-cbl LCK Ub TR-FRET assay (C-cbl Lck HTRF); type: biochemical
Chain of c-Cbl (P22681 47-435): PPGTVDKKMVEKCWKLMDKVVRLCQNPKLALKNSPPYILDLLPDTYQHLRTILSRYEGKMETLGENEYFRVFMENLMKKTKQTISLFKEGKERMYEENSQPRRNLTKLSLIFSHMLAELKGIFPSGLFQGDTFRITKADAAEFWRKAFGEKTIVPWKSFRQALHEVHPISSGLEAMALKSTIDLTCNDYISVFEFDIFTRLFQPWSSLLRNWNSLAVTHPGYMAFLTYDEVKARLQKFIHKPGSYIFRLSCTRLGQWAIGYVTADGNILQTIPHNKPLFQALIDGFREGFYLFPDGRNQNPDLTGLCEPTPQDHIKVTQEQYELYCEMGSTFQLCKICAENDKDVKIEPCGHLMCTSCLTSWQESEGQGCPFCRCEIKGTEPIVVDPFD
Protocol: as §1, §2, §3

Chain of Cbl-b (Q13191 40-426): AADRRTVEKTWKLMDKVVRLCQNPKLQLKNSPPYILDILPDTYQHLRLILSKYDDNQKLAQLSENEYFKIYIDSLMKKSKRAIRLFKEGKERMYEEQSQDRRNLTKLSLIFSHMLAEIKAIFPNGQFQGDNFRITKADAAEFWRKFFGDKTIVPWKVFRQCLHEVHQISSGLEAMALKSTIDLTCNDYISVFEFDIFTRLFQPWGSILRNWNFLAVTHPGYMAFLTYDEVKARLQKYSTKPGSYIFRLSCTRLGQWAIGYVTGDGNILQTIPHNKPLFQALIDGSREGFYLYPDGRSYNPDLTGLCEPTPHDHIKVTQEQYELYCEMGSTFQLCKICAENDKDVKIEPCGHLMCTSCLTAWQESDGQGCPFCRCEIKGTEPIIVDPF

(fold-selectivity) (Cbl-b)	IC50 (Cbl-b) [µM]	IC50 (c-Cbl) [µM]	SMILES
(2.3x)	0.32	0.74	Cn1cnnc1[C@H](F)[C@](C)(F)c1cccc(NC(=O)c2cc(CN3CC(C)(F)C3)nc(C3CC3)n2)c1 [Compound 43, 2-cyclopropyl-N-(3-((1S,2R)-1,2-difluoro-1-(4-methyl-4H-1,2,4-triazol-3-yl)propan-2-yl)phenyl)-6-((3-fluoro-3-methylazetidin-1-yl)methyl)pyrimidine-4-carboxamide]
(2.1x)	2.3	4.9	Cn1cnnc1[C@H](F)[C@@](C)(F)c1cccc(NC(=O)c2cc(CN3CC(C)(F)C3)nc(C3CC3)n2)c1 [Compound 44, 2-cyclopropyl-N-(3-((1S,2S)-1,2-difluoro-1-(4-methyl-4H-1,2,4-triazol-3-yl)propan-2-yl)phenyl)-6-((3-fluoro-3-methylazetidin-1-yl)methyl)pyrimidine-4-carboxamide]
(2.5x)	0.13	0.33	Cn1cnnc1[C@H](F)C1(c2cccc(NC(=O)c3cc(CN4CC(C)(F)C4)cc(C(F)(F)F)n3)c2)COC1 [Compound 60, (R)-N-(3-(3-(fluoro(4-methyl-4H-1,2,4-triazol-3-yl)methyl)oxetan-3-yl)phenyl)-4-((3-fluoro-3-methylazetidin-1-yl)methyl)-6-(trifluoromethyl)picolinamide]
(2.3x)	0.18	0.42	Cn1cnnc1[C@@H](F)C1(c2cccc(NC(=O)c3cc(CN4CC(C)(F)C4)cc(C(F)(F)F)n3)c2)COC1 [Compound 61, (S)-N-(3-(3-(fluoro(4-methyl-4H-1,2,4-triazol-3-yl)methyl)oxetan-3-yl)phenyl)-4-((3-fluoro-3-methylazetidin-1-yl)methyl)-6-(trifluoromethyl)picolinamide]
(1.2x)	0.12	0.14	Cn1cnnc1[C@H](F)C1(c2cccc(NC(=O)c3cc(CN4CCC5(CC5)C4)nc(C4CC4)n3)c2)COC1 [Compound 62, (R)-6-((5-azaspiro[2.4]heptan-5-yl)methyl)-2-cyclopropyl-N-(3-(3-(fluoro(4-methyl-4H-1,2,4-triazol-3-yl)methyl)oxetan-3-yl)phenyl)pyrimidine-4-carboxamide]
(1.1x)	0.17	0.18	Cn1cnnc1[C@@H](F)C1(c2cccc(NC(=O)c3cc(CN4CCC5(CC5)C4)nc(C4CC4)n3)c2)COC1 [Compound 63, (S)-6-((5-azaspiro[2.4]heptan-5-yl)methyl)-2-cyclopropyl-N-(3-(3-(fluoro(4-methyl-4H-1,2,4-triazol-3-yl)methyl)oxetan-3-yl)phenyl)pyrimidine-4-carboxamide]

The remaining lines, values behind:

SMILES	(fold-selectivity) (Cbl-b)	IC50 (Cbl-b) [µM]	IC50 (c-Cbl) [µM]
Cn1cnnc1[C@H](F)[C@](C)(F)c1cccc(NC(=O)c2cc(CN3CCC4(CC4)C3)cc(C3CC3)n2)c1 [Compound 35, 4-(5-azaspiro[2.4]heptan-5-ylmethyl)-6-cyclopropyl-N-(3-((1S,2R)-1,2-difluoro-1-(4-methyl-4H-1,2,4-triazol-3-yl)propan-2-yl)phenyl)picolinamide]	(1.8x)	0.023	0.4
Cn1cnnc1[C@H](F)[C@@](C)(F)c1cccc(NC(=O)c2cc(CN3CCC4(CC4)C3)cc(C3CC3)n2)c1 [Compound 36, 4-(5-azaspiro[2.4]heptan-5-ylmethyl)-6-cyclopropyl-N-(3-((1S,2S)-1,2-difluoro-1-(4-methyl-4H-1,2,4-triazol-3-yl)propan-2-yl)phenyl)picolinamide]	(1.8x)	0.14	0.24
Cn1cnnc1[C@@H](F)[C@@](C)(F)c1cccc(NC(=O)c2cc(CN3CCC4(CC4)C3)cc(C3CC3)n2)c1 [Compound 37, 4-(5-azaspiro[2.4]heptan-5-ylmethyl)-6-cyclopropyl-N-(3-((1R,2S)-1,2-difluoro-1-(4-methyl-4H-1,2,4-triazol-3-yl)propan-2-yl)phenyl)picolinamide]	(2.0x)	0.78	1.5
Cn1cnnc1[C@@H](F)[C@](C)(F)c1cccc(NC(=O)c2cc(CN3CCC4(CC4)C3)cc(C3CC3)n2)c1 [Compound 38, 4-(5-azaspiro[2.4]heptan-5-ylmethyl)-6-cyclopropyl-N-(3-((1R,2R)-1,2-difluoro-1-(4-methyl-4H-1,2,4-triazol-3-yl)propan-2-yl)phenyl)picolinamide]	(1.7x)	0.025	0.042
Cn1cnnc1[C@H](F)[C@](C)(F)c1cccc(NC(=O)c2cc(CN3CCC4(CC4)C3)nc(C3CC3)n2)c1 [Compound 39, 6-(5-azaspiro[2.4]heptan-5-ylmethyl)-2-cyclopropyl-N-(3-((1S,2R)-1,2-difluoro-1-(4-methyl-4H-1,2,4-triazol-3-yl)propan-2-yl)phenyl)pyrimidine-4-carboxamide]	(1.9x)	0.18	0.34
Cn1cnnc1[C@H](F)[C@@](C)(F)c1cccc(NC(=O)c2cc(CN3CCC4(CC4)C3)nc(C3CC3)n2)c1 [Compound 40, 6-(5-azaspiro[2.4]heptan-5-ylmethyl)-2-cyclopropyl-N-(3-((1S,2S)-1,2-difluoro-1-(4-methyl-4H-1,2,4-triazol-3-yl)propan-2-yl)phenyl)pyrimidine-4-carboxamide]	(2.3x)	0.88	2.1
Cn1cnnc1[C@@H](F)[C@@](C)(F)c1cccc(NC(=O)c2cc(CN3CCC4(CC4)C3)nc(C3CC3)n2)c1 [Compound 41, 6-(5-azaspiro[2.4]heptan-5-ylmethyl)-2-cyclopropyl-N-(3-((1R,2S)-1,2-difluoro-1-(4-methyl-4H-1,2,4-triazol-3-yl)propan-2-yl)phenyl)pyrimidine-4-carboxamide]	(2.5x)	4.8	12
Cn1cnnc1[C@@H](F)[C@](C)(F)c1cccc(NC(=O)c2cc(CN3CCC4(CC4)C3)nc(C3CC3)n2)c1 [Compound 42, 6-(5-azaspiro[2.4]heptan-5-ylmethyl)-2-cyclopropyl-N-(3-((1R,2R)-1,2-difluoro-1-(4-methyl-4H-1,2,4-triazol-3-yl)propan-2-yl)phenyl)pyrimidine-4-carboxamide]	(1.4x)	0.19	0.27
Cn1cnnc1[C@H](F)C1(c2cccc(NC(=O)c3cc(CN)cc(C(F)(F)F)n3)c2)COC1.O=CO [Compound 64, (R)-4-(aminomethyl)-N-(3-(3-(fluoro(4-methyl-4H-1,2,4-triazol-3-yl)methyl)oxetan-3-yl)phenyl)-6-(trifluoromethyl)picolinamide formate]	(1.2x)	0.2	0.23
Cn1cnnc1[C@@H](F)C1(c2cccc(NC(=O)c3cc(CN)cc(C(F)(F)F)n3)c2)COC1.O=CO [Compound 65, (S)-4-(aminomethyl)-N-(3-(3-(fluoro(4-methyl-4H-1,2,4-triazol-3-yl)methyl)oxetan-3-yl)phenyl)-6-(trifluoromethyl)picolinamide formate]	(1.2x)	0.2	0.23
